{"source": "patent US7972814B2", "about": "“Antimicrobial polypeptides from Pseudoplectania nigrella” (Novozymes Adenivro Biotech A/S, priority 2001, dated 2011)", "key": {"E. coli": {"system": "E. coli", "experiment": "Growth inhibition of E. coli upon induction of endogenous Plectasin expression (suicide expression system)", "type": "cell-based", "experimental": "In order to evaluate whether E. coli was growth inhibited in liquid media upon induction of endogenous Plectasin expression, the following experiment was conducted as disclosed in the examples of international patent application WO 00/73433. Briefly, fresh overnight cultures of cells containing either pDRS-18-plectasin, pDR-18-plectasin, pHH or pHHA plasmid were diluted 300-fold into 150 micro liter of LB or LB containing 0.1% arabinose in a microtiter plate and incubated at 37 degrees Celsius with vigorous shaking. The growth curve was monitored by measuring OD450 at regular intervals using an ELISA reader."}, "Bacillus subtilis": {"system": "Bacillus subtilis", "experiment": "Antimicrobial activity by radial diffusion assay", "type": "cell-based", "experimental": "A modified version of a previously published protocol has been applied in the detection of antimicrobial activity (Lehrer et al., (1991) Ultrasensitive assays for endogenous antimicrobial polypeptides J Immunol Methods 137: 167-173). Target bacteria (10^6 colony forming units (CFU)) were added to 10 ml of underlay agarose (1% low electro-endosmosis agarose, 0.03% Trypticase soy broth, 10 mM sodium phosphat, pH 7.4, 37 degrees Celsius). Suspension was solidified on an INTEGRID Petri Dish (Becton Dickinson Labware, N.J.). A 3 mm Gel Puncher was used to make holes in the underlay agarose (Amersham Pharmacia Biotech, Sweden). Samples were added to the holes and incubated at 37 degrees Celsius, 3 hours. An overlay was poured on top and the plate was incubated overnight (LB media, 7.5% Agar). Antimicrobial activity was seen as bacterial clearing zones around the wells. Living cells was counterstained by adding 10 ml, 0.2 mM MTT (3-(4,5-Dimethylthiazol-2-yl)-2,5-diphenyltetrazolium bromide Thiazolyl blue). All standard protocols has been described elsewhere (Sambrook, Fritsch, and Maniatis, 1989).\nTo evaluate the anti-microbial activity of Plectasin, fermentation broths of recombinant Aspergillus oryzae were applied in 2-fold serial dilutions in a radial diffusion assay (described above). […]\nThe supernatants described above were analyzed in a radial diffusion assay as described in Example 5. […]"}}}
{"substance": "Plectasin", "values": [{"measurement": "inhibition of cell growth", "setting": "E. coli; Plectasin directed to the periplasm", "value": 41, "unit": "%"}, {"measurement": "effect on cell growth", "setting": "E. coli; Plectasin expressed in the cytoplasm", "value": "did not affect cell growth"}, {"measurement": "increase in antimicrobial activity of the peptide", "setting": "Bacillus subtilis; produced in E. coli Origami-DE3 (inclusion bodies) versus the earlier E. coli host", "value": "5-10 fold"}, {"measurement": "largest clearing zone", "setting": "Bacillus subtilis; undiluted fermentation broth of recombinant Aspergillus oryzae", "value": 15, "unit": "mm"}]}
